For 20 compounds, IC50 results are on record in patent US20160237059A1, “HETEROCYCLIC SUBSTITUTED TRIFLUOROMETHYL PYRIMIDINONES AND THEIR USE” (BAYER PHARMA AKTIENGESELLSCHAFT, priority 2013, published 2016).

What all share (type): cell-based
For test [1], the target named is T1, murine CCR2 (Mus musculus, UniProt P51683).
T1 construct: host or cells: U2OS β-arrestin cell line
As to the kind of experiment: Functional β-arrestin recruiting test with human MCP-1 (B-2a). As to conditions: U2OS β-arrestin cell line transfected with murine CCR2; agonist human MCP-1 at EC50 (about 3 nM); in some cases means of several determinations. The gist of the method:
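Antagonist mode in U2OS cells expressing murine CCR2, read by PathHunter β-galactosidase complementation luminescence. Cells pre-incubated 10 min with 10-point compound dilutions (1:3.16 steps), then stimulated with human MCP-1 at its EC50 (usually about 3 nM) for 90 min at 37° C.; IC50 from 4-parameter logistic fit.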
On the technique in general: Recruitment of arrestin is a read-out of receptor activation apart from second messengers.

For test [2], the target named is T1, murine CCR2. Kind of test: Functional β-arrestin recruiting test with murine MCP-1 (B-2b). The settings on record: U2OS β-arrestin cell line transfected with murine CCR2; agonist murine MCP-1; in some cases means of several determinations. The gist of the method:
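In a PathHunter β-galactosidase complementation assay, U2OS cells expressing murine CCR2 were preincubated 10 min with compound (10-point, 1:3.16 dilutions), then challenged with murine MCP-1 at its predetermined EC50 for 90 min at 37 °C. Luminescence was read after 60 min, and IC50 was fitted with a 4-parameter Hill function.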

For test [3], the target named is T2, human CCR2 (Homo sapiens, UniProt P41597).
T2 construct: host or cells: Chem-1 cell line
T2 sequence (P41597 1-360 isoform P41597-2): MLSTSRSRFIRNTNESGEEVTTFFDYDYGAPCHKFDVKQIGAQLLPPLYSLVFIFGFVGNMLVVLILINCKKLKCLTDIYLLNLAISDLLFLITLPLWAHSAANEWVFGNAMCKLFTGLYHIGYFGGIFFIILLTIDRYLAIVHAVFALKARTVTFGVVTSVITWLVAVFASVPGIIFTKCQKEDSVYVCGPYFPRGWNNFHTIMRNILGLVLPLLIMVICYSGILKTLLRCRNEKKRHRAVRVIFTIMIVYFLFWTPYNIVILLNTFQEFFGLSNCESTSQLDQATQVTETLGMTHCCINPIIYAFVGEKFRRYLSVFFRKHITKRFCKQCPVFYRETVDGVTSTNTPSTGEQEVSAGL
Kind of test: Functional Ca2+ release test (B-1). The settings on record: Chem-1 cell line transfected with human CCR2; 50% inhibition of the MCP-1 effect, MCP-1 at EC50 (about 5 nM); in some cases means of several determinations. The gist of the method: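 Inhibition of MCP-1-evoked Ca2+ release was measured over 120 s by fluorescence imaging in Fluo-4-loaded, human CCR2-transfected Chem-1 cells. Compounds, tested in 10-point 1:3.16 series, were added 10 min before agonist at its EC50 (typically about 5 nM). IC50 values were obtained by 4-parameter logistic fitting.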

T1 sequence (P51683 whole entry): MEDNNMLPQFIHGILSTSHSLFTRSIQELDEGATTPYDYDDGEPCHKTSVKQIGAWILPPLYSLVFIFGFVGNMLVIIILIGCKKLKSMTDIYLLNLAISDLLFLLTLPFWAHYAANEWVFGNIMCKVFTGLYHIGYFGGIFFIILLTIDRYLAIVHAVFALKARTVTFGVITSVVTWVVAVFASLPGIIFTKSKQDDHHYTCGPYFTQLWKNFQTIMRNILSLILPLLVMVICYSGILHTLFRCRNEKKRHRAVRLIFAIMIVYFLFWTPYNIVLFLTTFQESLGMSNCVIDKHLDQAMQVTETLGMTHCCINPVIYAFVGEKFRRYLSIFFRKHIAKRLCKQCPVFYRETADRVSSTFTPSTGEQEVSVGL

Turning to `O=c1[nH]c(-c2ncccc2F)nc(C(F)(F)F)c1Oc1ccc(Cl)c(C(F)(F)F)c1` [Example 39, 5-[4-chloro-3-(trifluoromethyl)phenoxy]-2-(3-fluoropyridin-2-yl)-6-(trifluoromethyl)pyrimidin-4(3H)-one], the figures for the IC50 in test [1], in test [2] and in test [3] were 20 nM, 50 nM and 0.9 nM, respectively.
The matching figures for `COc1cccnc1-c1nc(C(F)(F)F)c(Oc2ccc(Cl)c(C(F)(F)F)c2)c(=O)[nH]1` [Example 40, 5-[4-chloro-3-(trifluoromethyl)phenoxy]-2-(3-methoxypyridin-2-yl)-6-(trifluoromethyl)pyrimidin-4(3H)-one]: 12 nM, 44 nM and 0.8 nM.
`COc1ncccc1-c1nc(C(F)(F)F)c(Oc2ccc(Cl)c(Cl)c2)c(=O)[nH]1` [Example 42]: the IC50 came to 44 nM in test [1], 812 nM in test [2] and 1.5 nM in test [3].
The corresponding values for `Nc1cccc(-c2nc(C(F)(F)F)c(Oc3ccc(Cl)c(C(F)(F)F)c3)c(=O)[nH]2)n1` [Example 44, 2-(6-aminopyridin-2-yl)-5-[4-chloro-3-(trifluoromethyl)phenoxy]-6-(trifluoromethyl)pyrimidin-4(3H)-one] are 74 nM, 222 nM and 2.2 nM.
In the case of `Nc1ccnc(-c2nc(C(F)(F)F)c(Oc3ccc(Cl)c(C(F)(F)F)c3)c(=O)[nH]2)c1` [Example 45, 2-(4-aminopyridin-2-yl)-5-[4-chloro-3-(trifluoromethyl)phenoxy]-6-(trifluoromethyl)pyrimidin-4(3H)-one], the IC50 was found to be 86 nM in test [1], 553 nM in test [2] and 4.7 nM in test [3].
The matching figures for `Nc1cnn(-c2nc(C(F)(F)F)c(Oc3ccc(Cl)c(Cl)c3)c(=O)[nH]2)c1` [Example 47, 2-(4-Amino-1H-pyrazol-1-yl)-5-(3,4-dichlorophenoxy)-6-(trifluoromethyl)pyrimidin-4(3H)-one]: 3.6 nM, 95 nM and 1 nM.
`O=c1[nH]c(-c2cc[nH]n2)nc(C(F)(F)F)c1Oc1ccc(Cl)c(Cl)c1` [Example 49, 5-(3,4-Dichlorophenoxy)-2-(1H-pyrazol-3-yl)-6-(trifluoromethyl)pyrimidin-4(3H)-one]: the IC50 in test [1] came to 2.5 nM; in test [2], 12 nM; in test [3] it was 0.6 nM.
Consider `O=c1[nH]c(-n2cccn2)nc(C(F)(F)F)c1Oc1ccc(Cl)c(Cl)c1` [Example 51, 5-(3,4-dichlorophenoxy)-2-(1H-pyrazol-1-yl)-6-(trifluoromethyl)pyrimidin-4(3H)-one], for which the values for the IC50 in test [1], in test [2] and in test [3] were 20 nM, 112 nM and 0.5 nM, respectively.
The corresponding values for `Cn1cnc(-c2nc(C(F)(F)F)c(Cc3ccc(Cl)c(Cl)c3)c(=O)[nH]2)c1` [Example 52, 5-(3,4-dichlorobenzyl)-2-(1-methyl-1H-imidazol-4-yl)-6-(trifluoromethyl)pyrimidin-4(3H)-one] are 85 nM, 439 nM and 1.3 nM.
The matching figures for `O=c1[nH]c(-n2cccn2)nc(C(F)(F)F)c1Cc1ccc(Cl)c(Cl)c1` [Example 53, 5-(3,4-dichlorobenzyl)-2-(1H-pyrazol-1-yl)-6-(trifluoromethyl)pyrimidin-4(3H)-one]: 67 nM, 440 nM and 1.8 nM.
The corresponding values for `Cc1cc(-c2nc(C(F)(F)F)c(Oc3ccc(Cl)c(Cl)c3)c(=O)[nH]2)nn1C` [Example 54, 5-(3,4-dichlorophenoxy)-2-(1,5-dimethyl-1H-pyrazol-3-yl)-6-(trifluoromethyl)pyrimidin-4(3H)-one] are 51 nM, 458 nM and 2.8 nM.
For the compound `Cn1cnc(-c2nc(C(F)(F)F)c(Oc3ccc(Cl)c(C(F)(F)F)c3)c(=O)[nH]2)c1` [Example 59, 5-[4-chloro-3-(trifluoromethyl)phenoxy]-2-(1-methyl-1H-imidazol-4-yl)-6-(trifluoromethyl)pyrimidin-4(3H)-one], the values for the IC50 in test [1], in test [2] and in test [3] were 12 nM, 106 nM and 0.6 nM, respectively.
With `O=c1[nH]c(-c2cc[nH]n2)nc(C(F)(F)F)c1Oc1ccc(Cl)c(C(F)(F)F)c1` [Example 65, 5-[4-chloro-3-(trifluoromethyl)phenoxy]-2-(1H-pyrazol-3-yl)-6-(trifluoromethyl)pyrimidin-4(3H)-one], the IC50 was found to be 1.8 nM in test [1], 4.8 nM in test [2] and 0.3 nM in test [3].
On to `O=c1[nH]c(-c2cn[nH]c2)nc(C(F)(F)F)c1Oc1ccc(Cl)c(C(F)(F)F)c1` [Example 70, 5-[4-chloro-3-(trifluoromethyl)phenoxy]-2-(1H-pyrazol-4-yl)-6-(trifluoromethyl)pyrimidin-4(3H)-one], for which the IC50 in test [1] was 56 nM; in test [2], 154 nM; in test [3] it was 0.8 nM.
As to `O=c1[nH]c(-n2cccn2)nc(C(F)(F)F)c1Cc1ccc(Cl)c(C(F)(F)F)c1` [Example 71, 5-[4-chloro-3-(trifluoromethyl)benzyl]-2-(1H-pyrazol-1-yl)-6-(trifluoromethyl)pyrimidin-4(3H)-one], the IC50 in test [1] is 57 nM; in test [2] it was 1080 nM; in test [3], 3 nM.
The matching figures for `O=c1[nH]c(-n2cccn2)nc(C(F)(F)F)c1Oc1ccc(Cl)c(C(F)(F)F)c1` [Example 73, 5-[4-chloro-3-(trifluoromethyl)phenoxy]-2-(1H-pyrazol-1-yl)-6-(trifluoromethyl)pyrimidin-4(3H)-one]: 12 nM, 37 nM and 0.4 nM.
The matching figures for `O=c1[nH]c(-c2n[nH]cc2Cl)nc(C(F)(F)F)c1Oc1ccc(Cl)c(Cl)c1` [Example 74, 2-(4-chloro-1H-pyrazol-3-yl)-5-(3,4-dichlorophenoxy)-6-(trifluoromethyl)pyrimidin-4(3H)-one]: 2.9 nM, 59 nM and 1.1 nM.
As for `O=c1[nH]c(-c2n[nH]cc2Cl)nc(C(F)(F)F)c1Cc1ccc(Cl)c(Cl)c1` [Example 75, 2-(4-chloro-1H-pyrazol-3-yl)-5-(3,4-dichlorobenzyl)-6-(trifluoromethyl)pyrimidin-4(3H)-one], the results for the IC50 in test [1], in test [2] and in test [3] were 29 nM, 102 nM and 1.3 nM, respectively.
The matching figures for `O=c1[nH]c(-c2n[nH]cc2Cl)nc(C(F)(F)F)c1Cc1ccc(Cl)c(C(F)(F)F)c1` [Example 76, 2-(4-chloro-1H-pyrazol-3-yl)-5-[4-chloro-3-(trifluoromethyl)benzyl]-6-(trifluoromethyl)pyrimidin-4(3H)-one]: 26 nM, 111 nM and 1.5 nM.
Turning to `O=c1[nH]c(-c2n[nH]cc2Cl)nc(C(F)(F)F)c1Oc1ccc(Cl)c(C(F)(F)F)c1` [Example 77, 2-(4-chloro-1H-pyrazol-3-yl)-5-[4-chloro-3-(trifluoromethyl)phenoxy]-6-(trifluoromethyl)pyrimidin-4(3H)-one], the values for the IC50 in test [1], in test [2] and in test [3] were 6.3 nM, 18 nM and 2 nM, respectively.

Usually IC50 stands for the concentration at which inhibition is half-maximal. Lower therefore signals greater potency in that assay.
